Values of other authors as cited in patent US8791150B2, “Pharmaceutical composition for peroral administration of diindolylmethane” (Zakrytoe Aktsionernoe Obschestvo “Veles Farma”, priority 2009, dated 2014).

Assays:
[1] = test system: normal (untransformed) keratinocytes; details: in vitro; cited from earlier work
[2] = test system: pathological neoangiogenesis; details: injected subcutaneously, 5 mg/kg daily; cited from earlier work
[3] = test system: cellular cervical cancer lines; details: one of the three cellular cervical cancer lines studied; cited from earlier work

| Compound | apoptotic changes in normal keratinocytes [1] | suppression of pathological neoangiogenesis [2] [%] | LD50 [3] [µM] |
| --- | --- | --- | --- |
| c1ccc2c(Cc3c[nH]c4ccccc34)c[nH]c2c1 [DIM, 3,3′-diindolylmethane] | did not induce any apoptotic changes | 74 | – |
| OCc1c[nH]c2ccccc12 [Pluronic I3C, indole-3-carbinol] | – | – | 200 |
